The results in this text go back to US10683282B2, “Multi-substituted pyrimidine derivatives with excellent kinase inhibitory activities” (KOREA INSTITUTE OF SCIENCE AND TECHNOLOGY, priority 2018, dated 2020).

Data set [1] has as its target CYP 2C9 (Homo sapiens, UniProt P11712). Briefly: CYP450 assay (luminescence). The class given is in vitro ADME. The conditions noted are these: CYP 2C9 enzyme with substrate, compound at 10 μM, read-out: inhibitory activity against human CYP 2C9. The procedure:
(§1) The resulting substance was reacted with NADPH for 20 minutes at 37° C. and a detection reagent was added to terminate the reaction. After stabilization at room temperature for 20 minutes, a luminescence signal was measured.

Data set [2] deals with CYP 2D6 (Homo sapiens, UniProt P10635). The data set can be described thus: CYP450 assay (luminescence). The format is in vitro ADME. Particulars: CYP 2D6 enzyme with substrate, compound at 10 μM, read-out: inhibitory activity against human CYP 2D6. As for the experimental part: as §1
Data set [3] concerns the target T1, ACK1 (Homo sapiens, UniProt Q07912).
T1 construct: purchased Reaction Biology Corporation
The data set can be described thus: Kinase screening, HotSpot assay (Reaction Biology). The class given is biochemical. As for the experimental part:
(§2) Kinase screening was performed using a “HotSpot” assay platform method by Reaction Biology Corporation. The reaction buffer used herein contained 20 mM HEPES (pH 7.5), 10 mM MgCl2, 1 mM EGTA, 0.02% Brij35, 0.02 mg/mL BSA, 0.1 mM Na3VO4, 2 mM DTT and 1% DMSO. The required cofactors were added in accordance with the kinase reaction. Freshly made buffer and cofactors were added at a concentration of 20 μM during the selected enzyme reaction. A solution of the test compound in dimethylsulfoxide (DMSO) was added at a suitable concentration to this solution. In order to initiate reaction, […] (specific activity […]) was added and incubated at room temperature for 2 hours. The test compound was screened at a starting concentration of 20 μM in a 10-dose IC50 mode. IC50 of Staurosporine used as a control drug was obtained at a starting concentration of 20 μM in a 10-dose IC50 mode.

Data set [4] deals with T2, JAK2 (Homo sapiens, UniProt O60674).
T2 construct: purchased Reaction Biology Corporation
The data set can be described thus: Kinase screening, HotSpot assay (Reaction Biology). The class given is biochemical. The procedure: as §2

The target of data set [5] is T3, JAK2(V617F) (Homo sapiens, UniProt O60674, V617F).
T3 construct: purchased Reaction Biology Corporation
Briefly: Kinase screening, HotSpot assay (Reaction Biology). The format is biochemical. As for the experimental part: as §2

In data set [6] the target is T4, ARK5/NUAK1 (Homo sapiens, UniProt O60285).
T4 construct: purchased Reaction Biology Corporation
T4 sequence (O60285 1-661): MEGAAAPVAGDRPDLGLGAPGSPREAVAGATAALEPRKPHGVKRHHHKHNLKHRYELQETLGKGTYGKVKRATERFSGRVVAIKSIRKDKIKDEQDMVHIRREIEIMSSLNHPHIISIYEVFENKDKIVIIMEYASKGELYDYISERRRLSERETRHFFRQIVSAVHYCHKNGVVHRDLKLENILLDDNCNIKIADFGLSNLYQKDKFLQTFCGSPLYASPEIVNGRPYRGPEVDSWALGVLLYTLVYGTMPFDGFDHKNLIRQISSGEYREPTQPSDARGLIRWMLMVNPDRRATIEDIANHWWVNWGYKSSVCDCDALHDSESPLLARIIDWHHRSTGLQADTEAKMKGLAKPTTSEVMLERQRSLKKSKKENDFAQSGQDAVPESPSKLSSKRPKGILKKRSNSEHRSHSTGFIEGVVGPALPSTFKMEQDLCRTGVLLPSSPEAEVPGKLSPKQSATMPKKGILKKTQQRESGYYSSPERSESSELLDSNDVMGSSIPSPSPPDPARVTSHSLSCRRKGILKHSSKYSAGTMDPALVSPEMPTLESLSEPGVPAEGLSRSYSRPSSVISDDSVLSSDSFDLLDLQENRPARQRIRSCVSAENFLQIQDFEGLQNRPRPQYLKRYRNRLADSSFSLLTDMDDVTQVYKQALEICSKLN
The data set can be described thus: Kinase screening, HotSpot assay (Reaction Biology). The class given is biochemical. The procedure:
as §2

The target of data set [7] is T5, JAK1 (Homo sapiens, UniProt P23458).
T5 construct: purchased Reaction Biology Corporation
Briefly: Kinase screening, HotSpot assay (Reaction Biology). The format is biochemical. As for the experimental part: as §2

Data set [8] addresses CYP 3A4 (Homo sapiens, UniProt P08684). Briefly: CYP450 assay (luminescence). Particulars: CYP 3A4 enzyme with substrate, compound at 10 μM, read-out: inhibitory activity against human CYP 3A4. The class given is in vitro ADME. As for the experimental part:
(§3) Compound 5 and a positive control stock solution were diluted with water to prepare a 40 μM working solution, and a solution containing an enzyme and a substrate was prepared using water and buffer. Compound 5/control/positive control and the solution were each dispensed on a 96-well and preincubated at 37° C. for 10 minutes. The resulting substance was reacted with NADPH for 20 minutes at 37° C. and a detection reagent was added to terminate the reaction. After stabilization at room temperature for 20 minutes, a luminescence signal was measured.

The target of data set [9] is CYP 1A2 (Homo sapiens, UniProt P05177). Briefly: CYP450 assay (luminescence). The class given is in vitro ADME. Particulars: human, CYP 1A2 enzyme with substrate; compound at 10 μM; read-out: inhibitory activity against human CYP 1A2. As for the experimental part:
as §3

The test system of data set [10] is HFL-1. The data set can be described thus: Cytotoxicity test (cell counting kit-8). The format is cell-based. Particulars: Homo sapiens, HFL1, WST-8. An excerpt: (§4) Cell counting kit-8 assay is a general test method for identifying cell viability using a pale yellow tetrazolium salt called “WST-8”. WST-8, which is soluble in water, is degraded by a dehydrogenase present in the cells, forming orange formazan. Formazan dye is formed by dehydrogenase activity proportional to the number of viable cells, and thus can be used as an indicator for cell viability. The Hill equation of Graphpad Prism was used for analysis.

Data set [11] concerns L929. The data set can be described thus: Cytotoxicity test (cell counting kit-8). The format is cell-based. Particulars: Mus musculus, WST-8.
Excerpt: as §4
(In general: Tetrazolium assays rely on reduction of a dye to a coloured formazan, in cell work by metabolically active cells.)

The subject of data set [12] is NIH3T3. Briefly: Cytotoxicity test (cell counting kit-8). The class given is cell-based. Particulars: Mus musculus, WST-8.
Excerpt: as §4

Data set [13] is described as follows: Cytotoxicity test (cell counting kit-8), summary over respective cells. The format is cell-based. The conditions noted are these: African green monkey, human, mouse, Chinese hamster, NIH3T3 and CHO-K1 cells; criterion 10 μM; VERO, HFL-1, L929, NIH3T3, CHO-K1.
Excerpt: as §4

A value given as a limit tells only on which side of the number the result lay.

Usually IC50 stands for the concentration that gives 50% inhibition. Read a high IC50 as weaker potency in that assay.

T1 sequence (Q07912 whole entry): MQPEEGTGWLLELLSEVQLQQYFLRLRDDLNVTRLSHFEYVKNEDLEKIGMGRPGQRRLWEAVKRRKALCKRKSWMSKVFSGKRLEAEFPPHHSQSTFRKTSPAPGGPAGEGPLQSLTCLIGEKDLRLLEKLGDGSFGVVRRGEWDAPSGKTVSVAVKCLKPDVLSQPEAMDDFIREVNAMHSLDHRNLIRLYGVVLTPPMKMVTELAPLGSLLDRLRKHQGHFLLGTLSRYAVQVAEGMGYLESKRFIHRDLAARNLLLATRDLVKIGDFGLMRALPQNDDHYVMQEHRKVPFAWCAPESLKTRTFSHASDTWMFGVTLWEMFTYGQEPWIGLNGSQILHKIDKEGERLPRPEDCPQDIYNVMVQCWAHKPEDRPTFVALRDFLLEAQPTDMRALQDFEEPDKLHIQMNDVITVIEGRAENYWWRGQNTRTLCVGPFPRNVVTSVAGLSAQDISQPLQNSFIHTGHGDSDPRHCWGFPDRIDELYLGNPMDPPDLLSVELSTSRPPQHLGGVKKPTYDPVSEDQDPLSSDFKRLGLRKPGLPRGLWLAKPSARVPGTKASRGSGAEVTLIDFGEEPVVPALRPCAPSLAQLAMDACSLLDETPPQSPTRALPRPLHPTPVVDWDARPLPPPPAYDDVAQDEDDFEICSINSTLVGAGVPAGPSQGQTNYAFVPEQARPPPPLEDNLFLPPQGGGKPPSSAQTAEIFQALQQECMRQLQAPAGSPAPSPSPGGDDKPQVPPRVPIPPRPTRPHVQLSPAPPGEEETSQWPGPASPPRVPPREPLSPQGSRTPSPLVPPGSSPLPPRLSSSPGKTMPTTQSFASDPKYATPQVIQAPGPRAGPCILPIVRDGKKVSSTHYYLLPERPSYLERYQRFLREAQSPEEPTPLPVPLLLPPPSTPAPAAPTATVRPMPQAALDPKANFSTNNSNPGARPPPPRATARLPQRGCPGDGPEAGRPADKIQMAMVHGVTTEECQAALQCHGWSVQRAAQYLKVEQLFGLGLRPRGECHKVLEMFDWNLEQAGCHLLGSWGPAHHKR
T3 sequence (O60674 whole entry V617F): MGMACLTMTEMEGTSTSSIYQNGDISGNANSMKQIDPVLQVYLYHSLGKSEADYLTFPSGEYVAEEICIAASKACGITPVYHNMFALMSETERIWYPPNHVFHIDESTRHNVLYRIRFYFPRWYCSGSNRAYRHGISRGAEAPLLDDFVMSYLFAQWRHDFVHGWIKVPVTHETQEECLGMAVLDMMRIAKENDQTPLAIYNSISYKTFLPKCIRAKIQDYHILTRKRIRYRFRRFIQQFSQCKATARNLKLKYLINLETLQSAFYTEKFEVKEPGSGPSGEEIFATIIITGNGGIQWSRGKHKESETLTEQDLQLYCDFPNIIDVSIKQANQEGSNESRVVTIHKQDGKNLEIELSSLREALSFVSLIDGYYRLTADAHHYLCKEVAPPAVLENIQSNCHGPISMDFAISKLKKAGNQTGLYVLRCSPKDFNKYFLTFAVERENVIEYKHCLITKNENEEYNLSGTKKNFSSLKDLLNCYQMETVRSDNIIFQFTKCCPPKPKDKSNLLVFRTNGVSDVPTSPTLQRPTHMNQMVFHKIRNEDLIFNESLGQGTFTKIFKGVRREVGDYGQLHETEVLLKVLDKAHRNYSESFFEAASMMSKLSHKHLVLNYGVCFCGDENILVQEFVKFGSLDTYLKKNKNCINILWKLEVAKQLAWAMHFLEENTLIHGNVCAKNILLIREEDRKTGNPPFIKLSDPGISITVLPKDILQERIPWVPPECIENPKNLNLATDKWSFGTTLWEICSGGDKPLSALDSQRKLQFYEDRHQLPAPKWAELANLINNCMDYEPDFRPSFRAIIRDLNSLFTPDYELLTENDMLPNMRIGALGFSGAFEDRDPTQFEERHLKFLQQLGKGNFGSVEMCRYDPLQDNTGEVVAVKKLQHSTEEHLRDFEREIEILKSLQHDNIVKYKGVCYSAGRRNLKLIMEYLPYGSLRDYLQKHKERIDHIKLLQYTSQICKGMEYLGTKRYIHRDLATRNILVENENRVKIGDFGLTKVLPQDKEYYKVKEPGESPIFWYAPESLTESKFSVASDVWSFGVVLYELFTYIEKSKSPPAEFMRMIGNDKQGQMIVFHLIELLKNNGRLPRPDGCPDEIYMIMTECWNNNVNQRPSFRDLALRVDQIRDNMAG
CYP 2C9, sequence (P11712 whole entry): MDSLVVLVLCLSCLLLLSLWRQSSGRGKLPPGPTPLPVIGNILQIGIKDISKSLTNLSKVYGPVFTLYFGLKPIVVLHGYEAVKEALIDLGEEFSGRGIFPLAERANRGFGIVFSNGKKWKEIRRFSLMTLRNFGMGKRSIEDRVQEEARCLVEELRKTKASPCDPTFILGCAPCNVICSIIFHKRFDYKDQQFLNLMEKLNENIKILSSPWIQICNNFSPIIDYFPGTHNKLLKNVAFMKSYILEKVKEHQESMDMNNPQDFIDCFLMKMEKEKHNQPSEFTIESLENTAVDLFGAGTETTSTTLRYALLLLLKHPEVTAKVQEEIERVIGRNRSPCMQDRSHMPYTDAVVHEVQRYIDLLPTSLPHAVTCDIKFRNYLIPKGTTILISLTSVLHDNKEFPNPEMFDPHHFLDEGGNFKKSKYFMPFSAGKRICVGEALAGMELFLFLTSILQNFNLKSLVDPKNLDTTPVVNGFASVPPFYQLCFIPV
T2 sequence (O60674 whole entry): as the sequence (O60674 whole entry V617F) above, with F617V counted along it
CYP 1A2, sequence (P05177 whole entry): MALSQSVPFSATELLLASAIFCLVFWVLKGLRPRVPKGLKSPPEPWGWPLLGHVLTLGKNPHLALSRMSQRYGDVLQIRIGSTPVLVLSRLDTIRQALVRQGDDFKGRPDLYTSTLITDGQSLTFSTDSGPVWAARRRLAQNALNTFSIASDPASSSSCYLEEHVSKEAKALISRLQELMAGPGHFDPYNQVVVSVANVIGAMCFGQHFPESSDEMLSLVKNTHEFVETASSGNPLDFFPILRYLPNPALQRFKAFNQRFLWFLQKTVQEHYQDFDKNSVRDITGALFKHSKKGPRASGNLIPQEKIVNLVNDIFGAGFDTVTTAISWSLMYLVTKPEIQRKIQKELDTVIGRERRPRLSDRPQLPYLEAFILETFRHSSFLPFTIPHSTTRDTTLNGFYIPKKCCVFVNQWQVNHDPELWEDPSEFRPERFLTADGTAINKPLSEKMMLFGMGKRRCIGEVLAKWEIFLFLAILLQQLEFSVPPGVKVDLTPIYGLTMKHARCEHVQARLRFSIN
CYP 3A4, sequence (P08684 whole entry): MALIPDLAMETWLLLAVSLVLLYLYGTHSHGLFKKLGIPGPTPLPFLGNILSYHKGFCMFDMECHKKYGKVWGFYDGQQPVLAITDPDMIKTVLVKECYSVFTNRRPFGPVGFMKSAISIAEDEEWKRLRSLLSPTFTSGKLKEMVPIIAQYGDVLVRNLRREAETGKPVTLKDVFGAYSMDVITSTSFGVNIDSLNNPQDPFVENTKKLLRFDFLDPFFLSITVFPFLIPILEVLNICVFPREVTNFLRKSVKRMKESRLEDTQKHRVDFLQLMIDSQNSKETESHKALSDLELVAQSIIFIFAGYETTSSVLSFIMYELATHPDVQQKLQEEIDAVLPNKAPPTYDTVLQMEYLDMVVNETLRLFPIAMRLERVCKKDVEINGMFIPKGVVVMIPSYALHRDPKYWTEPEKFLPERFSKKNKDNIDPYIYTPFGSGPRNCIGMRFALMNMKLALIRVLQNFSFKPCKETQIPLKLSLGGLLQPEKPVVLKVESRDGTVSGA
T5 sequence (P23458 whole entry): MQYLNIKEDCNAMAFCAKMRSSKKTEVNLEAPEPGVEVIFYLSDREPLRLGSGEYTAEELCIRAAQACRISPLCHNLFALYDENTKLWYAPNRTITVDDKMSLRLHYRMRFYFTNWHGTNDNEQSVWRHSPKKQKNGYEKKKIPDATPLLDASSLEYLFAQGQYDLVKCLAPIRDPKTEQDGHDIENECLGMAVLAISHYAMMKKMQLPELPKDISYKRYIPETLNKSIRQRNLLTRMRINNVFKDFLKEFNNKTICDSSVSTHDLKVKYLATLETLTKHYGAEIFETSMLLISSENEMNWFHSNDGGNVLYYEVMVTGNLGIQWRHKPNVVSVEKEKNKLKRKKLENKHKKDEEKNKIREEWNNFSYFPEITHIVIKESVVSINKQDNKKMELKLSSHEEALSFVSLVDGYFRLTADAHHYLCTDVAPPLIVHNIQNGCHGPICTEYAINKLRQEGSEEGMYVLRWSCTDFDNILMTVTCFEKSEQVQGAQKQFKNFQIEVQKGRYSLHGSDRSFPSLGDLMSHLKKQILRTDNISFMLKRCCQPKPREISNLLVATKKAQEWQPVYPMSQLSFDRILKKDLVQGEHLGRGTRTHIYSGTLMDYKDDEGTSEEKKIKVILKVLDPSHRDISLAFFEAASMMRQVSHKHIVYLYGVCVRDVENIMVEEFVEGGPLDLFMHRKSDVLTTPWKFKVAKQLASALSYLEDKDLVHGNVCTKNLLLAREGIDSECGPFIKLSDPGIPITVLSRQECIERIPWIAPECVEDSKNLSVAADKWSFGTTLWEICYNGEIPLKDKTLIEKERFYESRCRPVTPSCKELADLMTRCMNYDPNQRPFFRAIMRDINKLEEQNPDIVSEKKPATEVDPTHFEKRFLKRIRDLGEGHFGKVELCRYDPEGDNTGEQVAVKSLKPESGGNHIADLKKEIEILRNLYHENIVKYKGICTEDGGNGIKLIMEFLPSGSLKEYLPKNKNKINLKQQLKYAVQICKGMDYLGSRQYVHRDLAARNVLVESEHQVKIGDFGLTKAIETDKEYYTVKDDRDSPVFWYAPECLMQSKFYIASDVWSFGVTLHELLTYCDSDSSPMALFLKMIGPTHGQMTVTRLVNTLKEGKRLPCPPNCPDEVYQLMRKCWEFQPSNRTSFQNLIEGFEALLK

`Clc1cnc(Nc2ccc(OCCN3CCCC3)cc2)nc1NCc1ccco1` [Compound 5, 5-chloro-4-(furan-2-yl)methylamino-2-[4-{2-(pyrrolidin-1-yl)ethoxy}phenylamino]pyrimidine]: the inhibition at 20 min, 10 µM in data set [1] was under 1%; in data set [2], 14.4%; in data set [8], 22.1%; in [9] it was 1.93%. Also, the concentration for half-maximal inhibition (IC50) in [3] was found to be 51.3 nM; in [4], 8.85 nM; in data set [5], 25.6 nM; in data set [6], 2.4 nM; in data set [7], 16.1 nM; in data set [10] it was 35.6 µM. Besides, the IC50 was 40.3 µM in [11], over 100 µM in data set [12] and at least 10 µM in data set [13].
